Data reported in patent US8148099B2, “Process for determining S-nitrosothiols in biological fluids” (Universita' Di Pisa, priority 2006, dated 2012).

Tests used:
[1] = target: T1, γ-glutamyltranspeptidase (GGT) (Homo sapiens, UniProt P19440); details: read-out: Km constant (Michaelis-Menten kinetic constant) of GGT; substance as substrate of GGT; cited from earlier work
[2] = target: T1, γ-glutamyltranspeptidase (GGT); experiment: Decomposition kinetics of GSNO, absorbance at 334 nm (FIG. 1); type: biochemical
Procedure: GSNO has a absorption band at 334 nm. […] In FIG. 1 in particular, the decomposition kinetics is shown of 50 uM GSNO with GGT 525 mU/mL added at the time t=0. In ordinates the absorbance at 334 nm is shown. […]
At the addition of GGT 525 mU/mL the decrease is observed of the absorbance at 334 nm that indicates the decomposition of GSNO (curve a of FIG. 1). GSNO is quantitatively decomposed, in the adopted operative conditions, in 450 sec.

[3] = blood; cited from earlier work

T1 sequence (P19440 whole entry, species assumed): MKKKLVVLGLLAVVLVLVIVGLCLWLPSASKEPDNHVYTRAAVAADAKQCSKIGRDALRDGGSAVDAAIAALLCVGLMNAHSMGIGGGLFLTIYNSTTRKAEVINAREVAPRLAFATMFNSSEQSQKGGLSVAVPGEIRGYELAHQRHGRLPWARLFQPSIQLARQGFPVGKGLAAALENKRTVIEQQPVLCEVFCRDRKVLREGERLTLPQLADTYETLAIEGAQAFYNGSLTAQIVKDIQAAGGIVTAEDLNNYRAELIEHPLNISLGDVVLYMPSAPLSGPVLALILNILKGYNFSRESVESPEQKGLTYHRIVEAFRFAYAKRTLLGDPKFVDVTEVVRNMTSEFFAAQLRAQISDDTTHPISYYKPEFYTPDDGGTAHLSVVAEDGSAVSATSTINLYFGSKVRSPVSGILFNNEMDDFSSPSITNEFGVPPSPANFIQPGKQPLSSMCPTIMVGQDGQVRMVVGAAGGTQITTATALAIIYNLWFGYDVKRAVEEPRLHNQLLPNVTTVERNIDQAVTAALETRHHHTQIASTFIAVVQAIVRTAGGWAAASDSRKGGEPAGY

SMILES | Km [1] [µM] | time for quantitative decomposition of GSNO ([2]; 50 uM GSNO, GGT 525 mU/mL, phosphate buffer 0.1 M pH 8.0, GlyGly 4.5 mM, Cu(SO4) 100 uM (curve a)) [s] | change of absorbance at 334 nm ([2]; adding only 50 uM of CuSO4 (curve b)) | half life in the hematic area [3]
N[C@@H](CCC(=O)N[C@@H](CS)C(=O)NCC(=O)O)C(=O)O [GSH, reduced glutathione] | 5 to 10 |  |  | 
N[C@@H](CCC(=O)N[C@@H](CSN=O)C(=O)NCC(=O)O)C(=O)O [GSNO, S-nitrosoglutathione] | 28 | 450 | no decrease is observed | 
[N]=O [NO, Nitric oxide] |  |  |  | about 2 ms
